From ChEMBL document CHEMBL3124930, “Synthesis of novel 5-(3-alkylquinolin-2-yl)-3-aryl isoxazole derivatives and their cytotoxic activity” (Bioorg Med Chem Lett, 2014)

Columns and labels:
Format in all cases: functional, cell-based
[1] = test system: A549; assay: Cytotoxicity against human A549 cells assessed as growth inhibition after 24 hrs by MTT assay; conditions: A549, 24 h
[2] = test system: COLO 205; assay: Cytotoxicity against human COLO205 cells assessed as growth inhibition after 24 hrs by MTT assay; conditions: COLO 205, 24 h
[3] = test system: PC-3; assay: Cytotoxicity against human PC3 cells assessed as growth inhibition after 24 hrs by MTT assay; conditions: PC-3, 24 h
[4] = test system: MDA-MB-231; assay: Cytotoxicity against human MDA-MB-231 cells assessed as growth inhibition after 24 hrs by MTT assay; conditions: MDA-MB-231, 24 h

Row | SMILES | IC50 [1] | IC50 [2] | IC50 [3] | IC50 [4]
1 | FC(F)(F)c1ccc(-c2cc(/C=N/c3ccccc3)on2)cc1 | 38.9 µM | 41.3 µM | 35.7 µM | 37.4 µM
2 | CCCc1cc2ccccc2nc1-c1cc(-c2ccc(C(F)(F)F)cc2)no1 | 43.9 µM | 42.2 µM | 33.8 µM | 36.5 µM
3 | CCCCc1cc2ccccc2nc1-c1cc(-c2ccccc2)no1 | > 100 µM | > 100 µM | > 100 µM | > 100 µM
4 | CCCCc1cc2ccccc2nc1-c1cc(-c2ccc(F)cc2)no1 | 27.5 µM | 25.3 µM | 26.3 µM | 24.2 µM
5 | CCc1cc2ccccc2nc1-c1cc(-c2ccc(C)cc2)no1 | > 100 µM | > 100 µM | > 100 µM | > 100 µM
6 | COc1cccc2c1C(=O)c1c(O)c3c(c(O)c1C2=O)C[C@@](O)(C(=O)CO)C[C@@H]3O[C@H]1C[C@H](N)[C@H](O)[C@H](C)O1 [DOXORUBICIN] | – | 0.7 µM | 0.6 µM | 0.8 µM
7 | CCc1cc2ccccc2nc1-c1cc(-c2ccc(C(F)(F)F)cc2)no1 | > 100 µM | > 100 µM | > 100 µM | > 100 µM
8 | CCCCCc1cc2ccccc2nc1-c1cc(-c2ccccc2)no1 | 92.3 µM | > 100 µM | > 100 µM | > 100 µM
9 | CCCCCc1cc2ccccc2nc1-c1cc(-c2ccc(C(F)(F)F)cc2)no1 | 28.3 µM | 24.5 µM | 30.2 µM | 22.1 µM
10 | CCCc1cc2ccccc2nc1-c1cc(-c2ccc(C)cc2)no1 | > 100 µM | > 100 µM | > 100 µM | > 100 µM
11 | C(=N\c1ccccc1)/c1cc(-c2ccccc2)no1 | 48.1 µM | 89.1 µM | > 100 µM | > 100 µM
12 | Cc1ccc(-c2cc(/C=N/c3ccccc3)on2)cc1 | 32 µM | 28.9 µM | 31.6 µM | 29.4 µM
13 | CCCCCc1cc2ccccc2nc1-c1cc(-c2ccc(C)cc2)no1 | > 100 µM | > 100 µM | > 100 µM | > 100 µM
14 | Fc1ccc(-c2cc(/C=N/c3ccccc3)on2)cc1 | 34.5 µM | 33.1 µM | 36.5 µM | 41.2 µM
15 | CCCCc1cc2ccccc2nc1-c1cc(-c2ccc(C(F)(F)F)cc2)no1 | 9.4 µM | 11.9 µM | 10.8 µM | 10.4 µM
16 | CCc1cc2ccccc2nc1-c1cc(-c2ccc(F)cc2)no1 | > 100 µM | > 100 µM | > 100 µM | > 100 µM
17 | CCCc1cc2ccccc2nc1-c1cc(-c2ccc(F)cc2)no1 | 51.3 µM | 50.3 µM | 42.2 µM | 48.4 µM
18 | CCCc1cc2ccccc2nc1-c1cc(-c2ccccc2)no1 | 52.5 µM | 48.9 µM | 51.3 µM | 47.2 µM
19 | CCc1cc2ccccc2nc1-c1cc(-c2ccccc2)no1 | > 100 µM | > 100 µM | > 100 µM | > 100 µM
20 | CCCCc1cc2ccccc2nc1-c1cc(-c2ccc(C)cc2)no1 | > 100 µM | > 100 µM | > 100 µM | > 100 µM
